For data set [1], the system named is MCF-7 cells. The data set can be described thus: Sulforhodamine B cell proliferation assay. The class given is cell-based, human. The conditions noted are these: for IC50: Homo sapiens, MCF7, 72 h, MCF-7, 72 hours, SRB. Here is the method:
(§1) Sulforhodamine B (SRB) assay: The cell proliferation assay was performed in 96-well plates as described previously. Adherent cells (MCF-7 and MDA-MB-231) were seeded in 96-well plates at a density of 5×10^3 cells per well. They were treated with increasing concentrations of the halogenated analogs the next day while in log-phase growth. After 72 hours of drug treatment, cells were fixed with 50% trichloroacetic acid and stained with 0.4% sulforhodamine B dissolved in 1% acetic acid. After 30 minutes, cells were then washed with 1% acetic acid to remove the unbound dye. The protein-bound dye was extracted with 10 mM Tris base to determine the optical density at 564-nm wavelength.

The target in data set [2] is T1, tubulin.
T1 construct: other: 2 μM tubulin, 45 min at 37° C., double reciprocal plot; rate and extent of tubulin polymerization; other: 25 μM or 100 μM
As to conditions: values with literature reference [18], [12], [43]; read-out: dissociation constant (Kd) for binding to tubulin; cited from earlier work.

Data set [3] deals with T1, tubulin. The data set can be described thus: Tubulin binding assay (fluorescence titration, quenching of intrinsic tubulin fluorescence). As to conditions: 2 μM tubulin, 45 min at 37° C., double reciprocal plot; read-out: dissociation constant (Kd) for binding to tubulin. More on the design: species or system mammalian. Here is the method: Fluorescence titration for determining the tubulin binding parameters was performed as described previously (Gupta and Panda, 2002). In brief, 9-nitro-nos (0-100 μM) was incubated with 2 μM tubulin in 25 mM PIPES, pH 6.8, 3 mM MgSO4 and 1 mM EGTA for 45 min at 37° C. The relative intrinsic fluorescence intensity of tubulin was then monitored in a JASCO FP-6500 spectrofluorometer (JASCO, Tokyo, Japan) using a cuvette of 0.3-cm path length, and the excitation wavelength was 295 nm. The fluorescence emission intensity of 9-nitro-nos at this excitation wavelength was negligible. A 0.3-cm path-length cuvette was used to minimize the inner filter effects caused by the absorbance of 9-nitro-nos at higher concentration ranges. In addition, the inner filter effects were corrected using a formula Fcorrected=Fobserved·antilog [(Aex+Aem)/2], where Aex is the absorbance at the excitation wavelength and Aem is the absorbance at the emission wavelength. The dissociation constant (Kd) was determined by the formula: 1/B=Kd/[free ligand]+1, where B is the fractional occupancy and [free ligand] is the concentration of free noscapine or 9-nitro-nos. The fractional occupancy (B) was determined by the formula B=ΔF/ΔFmax, where ΔF is the change in fluorescence intensity when tubulin and its ligand are in equilibrium and ΔFmax is the value of maximum fluorescence change when tubulin is completely bound with its ligand. ΔFmax was calculated by plotting 1/ΔF versus 1/ligand using total ligand concentration as the first estimate of free ligand concentration.
Fluorescence titration for determining the tubulin binding parameters was performed as described previously. In brief, 9-F-nos, 9-Cl-nos, 9-Br-nos or 9-I-nos (0-100 μM) was incubated with 2 μM tubulin in 25 mM PIPES, pH 6.8, 3 mM MgSO4, and 1 mM EGTA for 45 min at 37° C. The relative intrinsic fluorescence intensity of tubulin was then monitored in a JASCO FP-6500 spectrofluorometer (JASCO, Tokyo, Japan) using a cuvette of 0.3-cm path length, and the excitation wavelength was 295 nm. The fluorescence emission intensity of noscapine and its derivatives at this excitation wavelength was negligible. A 0.3-cm path-length cuvette was used to minimize the inner filter effects caused by the absorbance of these agents at higher concentration ranges. In addition, the inner filter effects were corrected using a formula F corrected=F observe·antilog [(Aex+Aem)/2], where Aex is the absorbance at the excitation wavelength and Aem is the absorbance at the emission wavelength. The dissociation constant (Kd) was determined by the formula: 1/B=Kd/[free ligand]+1, where B is the fractional occupancy and [free ligand] is the concentration of 9-F-nos, 9-Cl-nos, 9-Br-nos or 9-I-nos. The fractional occupancy (B) was determined by the formula B=ΔF/ΔFmax, where ΔF is the change in fluorescence intensity when tubulin and its ligand are in equilibrium and ΔFmax is the value of maximum fluorescence change when tubulin is completely bound with its ligand. ΔFmax was calculated by plotting 1/ΔF versus 1/[free ligand].

Data set [4] concerns MCF-7 cells. Kind of data set: Cell cycle analysis (propidium iodide, flow cytometry). The class given is cell-based, human. As to conditions: for G0/G1 / G2/M / S / Sub-G1: MCF-7, 25 μM, mean ± S.E.M.; for percent sub-G1 cells compared with noscapine: MCF-7, lower doses (5 μM and 10 μM), 72 hours. The protocol: The flow cytometric evaluation of the cell cycle status was performed as described previously. Briefly, 2×10^6 cells were centrifuged, washed twice with ice-cold PBS, and fixed in 70% ethanol. Tubes containing the cell pellets were stored at 4° C. for at least 24 hours. Cells were then centrifuged at 1000×g for 10 min and the supernatant was discarded. The pellets were washed twice with 5 ml of PBS and then stained with 0.5 ml of propidium iodide (0.1% in 0.6% Triton-X in PBS) and 0.5 ml of RNase A (2 mg/ml) for 45 minutes in dark. Samples were then analyzed on a FACSCalibur flow cytometer (Beckman Coulter Inc., Fullerton, Calif.).
For orientation: In flow cytometry, cells or beads pass a laser one at a time.

The subject of another data set is CEM cells. Kind of data set: In vitro cell proliferation MTS assay. The class given is cell-based. As to conditions: Homo sapiens, CCRF-CEM, 72 hours. Here is the method: (§2) Suspension cells (CEM, CEMNLB100 and CEM/VM-1-5) were cultured in RPMI-1640 media containing 10% FBS and then seeded into 96-well plates at a density of 5×10^3 cells per well and were treated with increasing gradient concentrations of 9-nitro-nos for 72 hours. Measurement of cell proliferation was performed colorimetrically by 3-(4,5-dimethylthiazol-2-yl)-5-(3-carboxymethoxyphenyl)-2-(4-sulphophenyl)-2H-tetrazolium, inner salt (MTS) assay, using the CellTiter96 AQueous One Solution Reagent (Promega, Madison, Wis.). Cells were exposed to MTS for 3 hours and absorbance was measured using a microplate reader (Molecular Devices, Sunnyvale, Calif.) at an optical density (OD) of 490 nm. The percentage of cell survival as a function of drug concentration for both the assays was then plotted to determine the IC50 value, which stands for the drug concentration needed to prevent cell proliferation by 50%.
as §2, with “(CEM)” for “(CEM, CEMNLB100 and CEM/VM-1-5)”, “were” for “were cultured in RPMI-1640 media containing 10% FBS and then”, “increasing” for “increasing gradient”, “all halogenated analogs” for “9-nitro-nos”
For orientation: Tetrazolium assays rely on reduction of a dye to a coloured formazan, in cell work by metabolically active cells.

Data set [5] concerns MDA-MB-231 cells. Kind of data set: DAPI staining, cell morphology by fluorescence microscopy. The class given is cell-based, human. As to conditions: 25 μM, 72 hours. The protocol:
Cell morphology was evaluated by fluorescence microscopy following DAPI staining (Vectashield, Vector Labs, Inc., Burlingame, Calif.). MDA-MB-231 cells were grown on poly-L-lysine coated coverslips in 6-well plates and were treated with the halogenated analogs at 25 μM for 72 hours. After incubation, coverslips were fixed in cold methanol and washed with PBS, stained with DAPI, and mounted on slides. Images were captured using a BX60 microscope (Olympus, Tokyo, Japan) with an 8-bit camera (Dage-MTI, Michigan City, Ind.) and IP Lab software (Scanalytics, Fairfax, Va.). Apoptotic cells were identified by features characteristic of apoptosis (e.g. nuclear condensation, formation of membrane blebs and apoptotic bodies).

The test system of data set [6] is MDA-MB-231 cells. The data set can be described thus: Sulforhodamine B cell proliferation assay. It is filed as cell-based. As to conditions: Homo sapiens; MDA-MB-231, 72 hours, SRB. The protocol:
as §1

Molecules are shown by their SMILES. Where two headings read alike, the source gives them in different places.

Broadly, the IC50 is the concentration that inhibits the measured activity by half. As a reminder, the Kd is a measure of binding affinity in units of concentration.

For `COc1ccc2c(c1OC)C(=O)O[C@@H]2[C@H]1c2c(c(Br)c3c(c2OC)OCO3)CCN1C` [9-Br-nos, (S)-6,7-dimethoxy-3-((R)-4-methoxy-6-methyl-9-bromo-5,6,7,8-tetrahydro-[1,3]dioxolo[4,5-g]isoquinolin-5-yl)isobenzofuran-1(3H)-one], the IC50 in the data set with MCF-7 cells [1] was determined as 1 ± 0.2 µM; in the data set with CEM cells, 1900 ± 200 nM; with MDA-MB-231 cells [6], 3.3 ± 0.4 µM. The “fold higher cytotoxic activity than noscapine” value in the data set on MCF-7 cells [1] (MCF-7, ratio of IC50) was about 40 fold. Besides, the Kd at tubulin [2] and at tubulin [3] was 54 ± 9.1 µM in each case. The G0/G1 in the data set on MCF-7 cells [4] (0 h) came to 53.3 ± 2.8%; with MCF-7 cells [4] (24 h), 10.4 ± 1.8%; in the data set with MCF-7 cells [4] (48 h), 6.5 ± 2.5%; with MCF-7 cells [4] (72 h) it was 4.6 ± 2.1%. The G2/M is 28.9 ± 4.4% in the data set on MCF-7 cells [4] (0 h), 61.9 ± 3.6% in the data set with MCF-7 cells [4] (24 h), 43.8 ± 3.4% with MCF-7 cells [4] (48 h) and 33.7 ± 3.5% in the data set with MCF-7 cells [4] (72 h). The S in the data set on MCF-7 cells [4] (0 h) is given as 12.7 ± 1.8%; in the data set with MCF-7 cells [4] (24 h), 3.4 ± 1.2%; in the data set with MCF-7 cells [4] (48 h), 2.8 ± 0.7%; in the data set on MCF-7 cells [4] (72 h), 2.4 ± 1.6%. Moreover, the Sub-G1 in the data set on MCF-7 cells [4] (0 h) is reported as 0.2 ± 0.1%; in the data set on MCF-7 cells [4] (24 h), 6.9 ± 2.4%; in the data set on MCF-7 cells [4] (48 h), 35.1 ± 3.5%; in the data set with MCF-7 cells [4] (72 h), 49.6 ± 2.7%. Besides, the “percent sub-G1 cells compared with noscapine” value with MCF-7 cells [4] was “higher”. Further, in the data set with MDA-MB-231 cells [5], the “nuclear morphology (features of apoptotic cells), DAPI” value (“nuclear morphology” below) is “condensed chromosomes, numerous fragmented micronuclei, and apoptotic bodies are evident”.
For `COc1ccc2c(c1OC)C(=O)O[C@@H]2[C@H]1c2c(c(F)c3c(c2OC)OCO3)CCN1C` [9-F-nos, (S)-6,7-dimethoxy-3-((R)-4-methoxy-6-methyl-9-fluoro-5,6,7,8-tetrahydro-[1,3]dioxolo[4,5-g]isoquinolin-5-yl)isobenzofuran-1(3H)-one], the IC50 was 3.3 ± 0.8 µM with MCF-7 cells [1], 2300 ± 700 nM with CEM cells and 8.2 ± 0.6 µM with MDA-MB-231 cells [6]. For the same molecule, the Kd on tubulin [3] worked out at 81 ± 8 µM. Further, the G0/G1 with MCF-7 cells [4] (0 h) is on record as 67.7 ± 5.6%; in the data set with MCF-7 cells [4] (24 h), 10.8 ± 2.4%; in the data set with MCF-7 cells [4] (48 h) it was 7.9 ± 2.8%; with MCF-7 cells [4] (72 h), 5.2 ± 2.2%. For the same molecule, the G2/M in the data set with MCF-7 cells [4] (0 h) is 18.5 ± 2.2%; in the data set on MCF-7 cells [4] (24 h) it was 65.9 ± 4.4%; with MCF-7 cells [4] (48 h), 43.7 ± 2.9%; in the data set with MCF-7 cells [4] (72 h) it was 34.4 ± 3.4%. The S with MCF-7 cells [4] (0 h) turned out to be 11.9 ± 1.5%; with MCF-7 cells [4] (24 h), 3.8 ± 1.1%; in the data set on MCF-7 cells [4] (48 h) it was 3.5 ± 0.8%; with MCF-7 cells [4] (72 h), 3.6 ± 1.5%. The Sub-G1 worked out at 0.2 ± 0.04% with MCF-7 cells [4] (0 h), 6.8 ± 2.1% in the data set with MCF-7 cells [4] (24 h), 34.5 ± 2.5% with MCF-7 cells [4] (48 h) and 48.6 ± 3.3% with MCF-7 cells [4] (72 h). Further, the “percent sub-G1 cells compared with noscapine” value with MCF-7 cells [4] is recorded as “higher”. Also, in the data set with MDA-MB-231 cells [5], the “nuclear morphology” value is “condensed chromosomes, numerous fragmented micronuclei, and apoptotic bodies are evident”.
For `COc1ccc2c(c1OC)C(=O)O[C@@H]2[C@H]1c2c(c(I)c3c(c2OC)OCO3)CCN1C` [9-I-nos, (S)-6,7-dimethoxy-3-((R)-4-methoxy-6-methyl-9-iodo-5,6,7,8-tetrahydro-[1,3]dioxolo[4,5-g]isoquinolin-5-yl)isobenzofuran-1(3H)-one], the IC50 was 45.6 ± 3.1 µM with MCF-7 cells [1], 38900 ± 3500 nM in the data set on CEM cells and 25.6 ± 2.4 µM in the data set on MDA-MB-231 cells [6]. At tubulin [3], the equilibrium dissociation constant (Kd) is 22 ± 4 µM. The G0/G1 is recorded as 60.6 ± 4.6% with MCF-7 cells [4] (0 h), 17 ± 2.3% in the data set with MCF-7 cells [4] (24 h), 15.4 ± 4.5% with MCF-7 cells [4] (48 h) and 17 ± 1.9% with MCF-7 cells [4] (72 h). In addition, the G2/M turned out to be 23.1 ± 3.7% in the data set on MCF-7 cells [4] (0 h), 44.5 ± 5.1% in the data set with MCF-7 cells [4] (24 h), 25.9 ± 4.1% with MCF-7 cells [4] (48 h) and 20.7 ± 2.2% in the data set on MCF-7 cells [4] (72 h). The S was 13.9 ± 2.3% in the data set on MCF-7 cells [4] (0 h), 3.1 ± 1.3% in the data set on MCF-7 cells [4] (24 h), 2.9 ± 0.6% with MCF-7 cells [4] (48 h) and 4.9 ± 2.2% in the data set with MCF-7 cells [4] (72 h). In addition, the Sub-G1 with MCF-7 cells [4] (0 h) is 0.3 ± 0.2%; with MCF-7 cells [4] (24 h), 7.7 ± 1.7%; in the data set with MCF-7 cells [4] (48 h), 28.1 ± 3.1%; in the data set on MCF-7 cells [4] (72 h), 30.1 ± 3.1%. The “nuclear morphology” value in the data set on MDA-MB-231 cells [5] was “condensed chromosomes, numerous fragmented micronuclei, and apoptotic bodies are evident”.

The values above are taken from US8889705B2, “Noscapine analogs and their use in treating cancers” (Emory University, priority 2007, dated 2014).
